In PubChem BioAssay AID330 (DTP/NCI, 2004):
Where “and” joins values, the source holds several entries; their conditions need not be identical. Identical values can stand only once. Inconclusive results and toxic doses are left out.

Test system: P388 leukemia ip, CD2F1 mice, survival T/C
Assay: NCI In Vivo Anticancer Drug Screen. Data for tumor model P388 Leukemia (intraperitoneal) in CD2F1 (CDF1) mice
Conditions: endpoint: median survival time, higher = longer survival
Procedure, shortened: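 Mice carrying the transplanted tumor received test compound or vehicle. Survival was recorded in each group, and the value is the treated-group measurement divided by that of the vehicle-treated control group.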

[1] = dose: 50.0 mg/kg/injection, schedule: Q01DX005 (ip), vehicle: Klucel (hydroxypropylcellulose) (HPC)
[2] = dose: 100.0 mg/kg/injection, schedule: Q01DX005 (ip), vehicle: Klucel (hydroxypropylcellulose) (HPC)
[3] = dose: 50.0 mg/kg/injection, schedule: Q01DX009 (ip), vehicle: saline with Tween-80
[4] = dose: 100.0 mg/kg/injection, schedule: Q01DX009 (ip), vehicle: saline with Tween-80
[5] = dose: 200.0 mg/kg/injection, schedule: Q01DX009 (ip), vehicle: saline with Tween-80
[6] = dose: 60.0 mg/kg/injection, schedule: Q01DX005 (ip), vehicle: saline with Tween-80
[7] = dose: 120.0 mg/kg/injection, schedule: Q01DX005 (ip), vehicle: saline with Tween-80
[8] = dose: 240.0 mg/kg/injection, schedule: Q01DX005 (ip), vehicle: saline with Tween-80
[9] = dose: 100.0 mg/kg/injection, schedule: Q04DX003 (ip), vehicle: saline

CC(=O)C1=CCC2C3=CCC4=CC(O)[C@@H](O)C[C@]4(C)C3C[C@@H](O)[C@]12C (stereo not given in full)
T/C (dose: 0.94 mg/kg/injection, schedule: Q01DX005 (ip), vehicle: saline + alcohol): 100 % of control
T/C (dose: 1.88 mg/kg/injection, schedule: Q01DX005 (ip), vehicle: saline + alcohol): 108 % of control
T/C (dose: 3.75 mg/kg/injection, schedule: Q01DX005 (ip), vehicle: saline + alcohol): 108 % of control
T/C (dose: 6.25 mg/kg/injection, schedule: Q01DX005 (ip), vehicle: saline + Tween-80 + alcohol): 100 % of control
T/C (dose: 7.5 mg/kg/injection, schedule: Q01DX005 (ip), vehicle: saline + alcohol): 104 % of control
T/C (dose: 12.5 mg/kg/injection, schedule: Q01DX005 (ip), vehicle: saline + Tween-80 + alcohol): 112 % of control
T/C (dose: 25.0 mg/kg/injection, schedule: Q01DX005 (ip), vehicle: saline + Tween-80 + alcohol): 109 % of control
T/C (dose: 50.0 mg/kg/injection, schedule: Q01DX005 (ip), vehicle: saline + Tween-80 + alcohol): 118 % of control

CC1=C(C)C(N2CCOCC2)CS(=O)(=O)O1 (stereo not given)
T/C [1]: 109 % of control
T/C [2]: 101 % of control

CCC1CCCCN1C(=S)N/N=C(\C)c1ccccn1 (stereo not given)
T/C (dose: 12.5 mg/kg/injection, schedule: Q04DX003 (ip), vehicle: saline with Tween-80): 106 % of control
T/C (dose: 25.0 mg/kg/injection, schedule: Q04DX003 (ip), vehicle: saline with Tween-80): 108 % of control and 115 % of control
T/C (dose: 50.0 mg/kg/injection, schedule: Q04DX003 (ip), vehicle: saline with Tween-80): 115 % of control

CN(C(=S)Nc1ccccc1)c1nnn(C)n1
T/C [3]: 98 % of control
T/C [4]: 100 % of control
T/C [5]: 107 % of control

Cn1c(=O)c2c(ncn2CCN2CCNCC2)n(C)c1=O
T/C (dose: 50.0 mg/kg/injection, schedule: Q01DX005 (ip), vehicle: distilled water + alcohol): 102 % of control
T/C (dose: 100.0 mg/kg/injection, schedule: Q01DX005 (ip), vehicle: distilled water + alcohol): 100 % of control
T/C (dose: 200.0 mg/kg/injection, schedule: Q01DX005 (ip), vehicle: distilled water + alcohol): 100 % of control

Cn1cc(/C=C/C(=O)c2ccccc2[N+](=O)[O-])c2ccccc21
T/C [6]: 95 % of control
T/C [7]: 89 % of control
T/C [8]: 89 % of control

NC(COc1ccccc1)Cc1ccccc1 (stereo not given)
T/C (dose: 12.5 mg/kg/injection, schedule: Q04DX003 (ip), vehicle: saline): 100 % of control
T/C (dose: 25.0 mg/kg/injection, schedule: Q04DX003 (ip), vehicle: saline): 100 % of control
T/C (dose: 50.0 mg/kg/injection, schedule: Q04DX003 (ip), vehicle: saline): 102 % of control
T/C [9]: 99 % of control

[N-]=[N+]=Nc1nnc(-c2ccccc2)c(=O)[nH]1
T/C (dose: 100.0 mg/kg/injection, schedule: Q04DX002 (ip), vehicle: saline): 101 % of control
T/C (dose: 200.0 mg/kg/injection, schedule: Q04DX002 (ip), vehicle: saline): 101 % of control
T/C (dose: 400.0 mg/kg/injection, schedule: Q04DX002 (ip), vehicle: saline): 96 % of control

CC(C)Cn1cnc2c(=S)nc(N)[nH]c21
T/C (dose: 8.0 mg/kg/injection, schedule: Q01DX009 (ip), vehicle: saline with Tween-80): 95 % of control
T/C (dose: 16.0 mg/kg/injection, schedule: Q01DX009 (ip), vehicle: saline with Tween-80): 100 % of control
T/C (dose: 32.0 mg/kg/injection, schedule: Q01DX009 (ip), vehicle: saline with Tween-80): 100 % of control
T/C (dose: 64.0 mg/kg/injection, schedule: Q01DX009 (ip), vehicle: saline with Tween-80): 90 % of control
T/C (dose: 100.0 mg/kg/injection, schedule: Q04DX003 (ip), vehicle: saline with Tween-80): 109 % of control
T/C (dose: 264.0 mg/kg/injection, schedule: Q04DX003 (ip), vehicle: saline with Tween-80): 100 % of control
T/C (dose: 400.0 mg/kg/injection, schedule: Q04DX003 (ip), vehicle: saline with Tween-80): 112 % of control
T/C (dose: 600.0 mg/kg/injection, schedule: Q04DX003 (ip), vehicle: saline with Tween-80): 116 % of control

CC1C(=O)C23CC1CCC2C12COC(O)C1C(C)(C)C(O)CC2OC3=O (stereo not given)
T/C (dose: 12.5 mg/kg/injection, schedule: Q01DX005 (ip), vehicle: Klucel (hydroxypropylcellulose) (HPC)): 100 % of control
T/C (dose: 25.0 mg/kg/injection, schedule: Q01DX005 (ip), vehicle: Klucel (hydroxypropylcellulose) (HPC)): 94 % of control
T/C [1]: 100 % of control
T/C (dose: 61.5 mg/kg/injection, schedule: Q01DX005 (ip), vehicle: Klucel (hydroxypropylcellulose) (HPC)): 96 % of control
T/C [2]: 102 % of control
T/C (dose: 123.0 mg/kg/injection, schedule: Q01DX005 (ip), vehicle: Klucel (hydroxypropylcellulose) (HPC)): 106 % of control
T/C (dose: 246.0 mg/kg/injection, schedule: Q01DX005 (ip), vehicle: Klucel (hydroxypropylcellulose) (HPC)): 98 % of control

COc1cccc2c1C(=O)c1c(O)c3c(c(O)c1C2=O)C[C@@](O)(C(C)=O)C[C@@H]3OC1CC(NC(C)C)C(O)C(C)O1 (stereo not given in full)
T/C (dose: 0.2 mg/kg/injection, schedule: Q01DX009 (ip), vehicle: water): 97 % of control
T/C (dose: 0.39 mg/kg/injection, schedule: Q01DX009 (ip), vehicle: water): 103 % of control
T/C (dose: 0.78 mg/kg/injection, schedule: Q01DX009 (ip), vehicle: water): 115 % of control
T/C (dose: 4.7 mg/kg/injection, schedule: Q04DX003 (ip), vehicle: water): 109 % of control
T/C (dose: 6.25 mg/kg/injection, schedule: Q01DX009 (ip), vehicle: water): 157 % of control and 174 % of control
T/C (dose: 9.4 mg/kg/injection, schedule: Q04DX003 (ip), vehicle: water): 107 % of control and 113 % of control
T/C (dose: 12.5 mg/kg/injection, schedule: Q01DX009 (ip), vehicle: water): 199 % of control
T/C (dose: 18.8 mg/kg/injection, schedule: Q04DX003 (ip), vehicle: water): 120 % of control
T/C (dose: 150.0 mg/kg/injection, schedule: Q04DX003 (ip), vehicle: water): 106 % of control and 91 % of control

CCCCN(CCCC)CCCNc1c2c(nc3ccccc13)CCCC2
T/C (dose: 12.5 mg/kg/injection, schedule: Q01DX005 (ip), vehicle: saline): 95 % of control
T/C (dose: 25.0 mg/kg/injection, schedule: Q01DX005 (ip), vehicle: saline): 104 % of control
T/C (dose: 50.0 mg/kg/injection, schedule: Q01DX005 (ip), vehicle: saline): 100 % of control

FC(F)(F)c1ccc2nc3c(nc2c1)-c1ccc(Br)c2cccc-3c12
T/C (dose: 50.0 mg/kg/injection, schedule: Q01DX009 (ip), vehicle: saline): 115 % of control
T/C (dose: 100.0 mg/kg/injection, schedule: Q01DX009 (ip), vehicle: saline): 101 % of control
T/C (dose: 200.0 mg/kg/injection, schedule: Q01DX009 (ip), vehicle: saline): 99 % of control

O=C1NC(=O)c2c1c1cnn(-c3ccccc3)c1n1cccc21
T/C (dose: 7.5 mg/kg/injection, schedule: Q01DX005 (ip), vehicle: saline with Tween-80): 96 % of control
T/C (dose: 15.0 mg/kg/injection, schedule: Q01DX005 (ip), vehicle: saline with Tween-80): 96 % of control
T/C (dose: 30.0 mg/kg/injection, schedule: Q01DX005 (ip), vehicle: saline with Tween-80): 87 % of control

CSC(=S)N/N=C(\C)c1cccs1
T/C [3]: 91 % of control
T/C [4]: 111 % of control
T/C [5]: 110 % of control

NC(CCCCC(N)C(=O)c1ccccc1)C(=O)c1ccccc1 (stereo not given)
T/C [6]: 98 % of control
T/C [7]: 93 % of control
T/C [8]: 94 % of control

O=C(O)CN(CCN(CC(=O)O)CC(=O)O)CC(=O)O
T/C [9]: 100 % of control

CC(=O)OCCOCNC(=S)NCc1ccco1
T/C [6]: 106 % of control
T/C [7]: 102 % of control
T/C [8]: 98 % of control

Cc1cc(-c2ccc(N=Nc3ccc4c(S(=O)(=O)O)cc(S(=O)(=O)O)c(N)c4c3O)c(C)c2)ccc1N=Nc1ccc2c(S(=O)(=O)O)cc(S(=O)(=O)O)c(N)c2c1O
T/C (dose: 12.5 mg/kg/injection, schedule: Q01DX009 (ip), vehicle: saline): 116 % of control
T/C (dose: 25.0 mg/kg/injection, schedule: Q01DX009 (ip), vehicle: saline): 107 % of control

Brc1ccccc1C(Nc1nncs1)Nc1nncs1
T/C [6]: 117 % of control and 123 % of control
T/C [8]: 154 % of control and 156 % of control
T/C (dose: 480.0 mg/kg/injection, schedule: Q01DX005 (ip), vehicle: saline with Tween-80): 169 % of control

COc1cc2c(cc1O)NC(OC)C1CC(O)CN1C2=O (stereo not given)
T/C (dose: 1.0 mg/kg/injection, schedule: Q01DX005 (ip), vehicle: saline with Tween-80): 121 % of control
T/C (dose: 2.0 mg/kg/injection, schedule: Q01DX005 (ip), vehicle: saline with Tween-80): 119 % of control
T/C (dose: 16.0 mg/kg/injection, schedule: Q01DX005 (ip), vehicle: saline with Tween-80): 161 % of control
